Test results published in patent publication US11434234B2, “Methods and agents for treating disease” (ANGION BIOMEDICA CORP., priority 2014, dated 2022).

target: T1, human CYP11B2 (Homo sapiens, UniProt P19099); test: Aldosterone inhibitory activity in V79 cells expressing human CYP11B2; type: cell-based; details: V79 Chinese hamster cells stably transfected with human CYP11B2; substrate 11-deoxycorticosterone 100 nM; read-out: IC50, inhibition of the production of aldosterone
T1 construct: expressed in transfected cells; host or cells: V79 Chinese hamster cells
T1 sequence (P19099 25-503): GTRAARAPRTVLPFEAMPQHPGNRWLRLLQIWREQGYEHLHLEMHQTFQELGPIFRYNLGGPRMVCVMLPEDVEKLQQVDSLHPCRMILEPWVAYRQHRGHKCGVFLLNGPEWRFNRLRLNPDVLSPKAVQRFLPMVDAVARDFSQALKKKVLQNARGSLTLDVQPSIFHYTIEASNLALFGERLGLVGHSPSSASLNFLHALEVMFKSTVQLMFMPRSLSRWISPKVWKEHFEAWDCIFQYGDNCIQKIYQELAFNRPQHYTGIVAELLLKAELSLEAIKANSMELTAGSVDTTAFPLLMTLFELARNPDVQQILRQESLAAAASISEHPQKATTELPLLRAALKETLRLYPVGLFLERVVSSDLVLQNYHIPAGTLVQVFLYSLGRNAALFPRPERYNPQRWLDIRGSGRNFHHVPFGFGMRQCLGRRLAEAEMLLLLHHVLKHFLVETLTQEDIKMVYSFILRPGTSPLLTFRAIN
Protocol: For the determination of aldosterone inhibitory activity, tests were carried out using V79 Chinese hamster cells stably transfected with human CYP11B2 or CYP11B1 and using assay protocols as described in Ehmer P B, Bureik M, Bernhardt R, Muller U, Hartmann R W. Development of a test system for inhibitors of human aldosterone synthase (CYP11B2): screening in fission yeast and evaluation of selectivity in V79 cells. J. Steroid Biochem. Mol. Biol. 2002 June; 81(2):173-9. The concentration of the substrate 11-deoxycorticosterone in the assay was 100 nM.

IC50, < 1000 nM:
COc1ccncc1C(O)(c1nc2cccc(Br)c2s1)C(C)C (stereo not drawn) [1-(7-bromobenzo[d]thiazol-2-yl)-1-(4-methoxypyridin-3-yl)-2-methylpropan-1-ol]
CCOc1ccncc1C(O)(c1nc2cccc(Br)c2s1)C(C)C (stereo not drawn) [Example 1, 1-(7-bromobenzo[d]thiazol-2-yl)-1-(4-ethoxypyridin-3-yl)-2-methylpropan-1-ol]
CCCC(O)(c1cncc(OC)c1)c1nc2ccc(F)cc2s1 (stereo not drawn) [Example 20, 1-(6-fluorobenzo[d]thiazol-2-yl)-1-(5-methoxypyridin-3-yl)butan-1-ol]
CCCC(O)(c1nc2cccc(Br)c2s1)c1cnccc1OC (stereo not drawn) [Example 24, 1-(7-bromobenzo[d]thiazol-2-yl)-1-(4-methoxypyridin-3-yl)butan-1-ol]
COc1ccncc1C(O)(c1nc2ccc(Br)cc2s1)C(C)C (stereo not drawn) [Example 25, 1-(6-bromobenzo[d]thiazol-2-yl)-1-(4-methoxypyridin-3-yl)-2-methylpropan-1-ol]
COc1ccncc1C(O)c1nc2ccc(Br)cc2s1 (stereo not drawn) [Example 26, (6-bromobenzo[d]thiazol-2-yl)(4-methoxypyridin-3-yl)methanol]
COc1ccncc1C(O)c1nc2cccc(Br)c2s1 (stereo not drawn) [Example 27, (7-bromobenzo[d]thiazol-2-yl)(4-methoxypyridin-3-yl)methanol]
CCCC(O)(c1nc2ccc([N+](=O)[O-])cc2s1)c1cnccc1OC (stereo not drawn) [Example 28, 1-(4-methoxypyridin-3-yl)-1-(6-nitrobenzo[d]thiazol-2-yl)butan-1-ol]
CCCC(O)(c1nc2ccc(Br)cc2s1)c1cnccc1OCC (stereo not drawn) [Example 29, 1-(6-bromobenzo[d]thiazol-2-yl)-1-(4-ethoxypyridin-3-yl)butan-1-ol]
CCCC(O)(c1nc2cccc(Br)c2s1)c1cnccc1OCC (stereo not drawn) [Example 30, 1-(7-bromobenzo[d]thiazol-2-yl)-1-(4-ethoxypyridin-3-yl)butan-1-ol]
COc1ccncc1C(O)(c1nc2ccccc2s1)C(C)(C)C (stereo not drawn) [Example 31, 1-(benzo[d]thiazol-2-yl)-1-(4-methoxypyridin-3-yl)-2,2-dimethylpropan-1-ol]
CCOc1ccncc1C(O)(c1nc2ccc(Br)cc2s1)C(C)C (stereo not drawn) [Example 32, 1-(6-bromobenzo[d]thiazol-2-yl)-1-(4-ethoxypyridin-3-yl)-2-methylpropan-1-ol]
CC(C)c1ccncc1C(O)(c1nc2ccc(Br)cc2s1)C(C)C (stereo not drawn) [Example 33, 1-(6-bromobenzo[d]thiazol-2-yl)-1-(4-isopropylpyridin-3-yl)-2-methylpropan-1-ol]
CC(C)c1ccncc1C(O)(c1nc2cccc(Br)c2s1)C(C)C (stereo not drawn) [Example 34, 1-(7-bromobenzo[d]thiazol-2-yl)-1-(4-isopropylpyridin-3-yl)-2-methylpropan-1-ol]
CC(C)Oc1ccncc1C(O)(c1nc2ccc(Br)cc2s1)C(C)C (stereo not drawn) [Example 35, 1-(6-bromobenzo[d]thiazol-2-yl)-1-(4-isopropoxypyridin-3-yl)-2-methylpropan-1-ol]
CC(C)Oc1ccncc1C(O)(c1nc2cccc(Br)c2s1)C(C)C (stereo not drawn) [Example 36, 1-(7-bromobenzo[d]thiazol-2-yl)-1-(4-isopropoxypyridin-3-yl)-2-methylpropan-1-ol]
CCCC(O)(c1nc2ccc(Br)cc2s1)c1cnccc1C(C)C (stereo not drawn) [Example 37, 1-(6-bromobenzo[d]thiazol-2-yl)-1-(4-isopropylpyridin-3-yl)butan-1-ol]
CCCC(O)(c1nc2cccc(Br)c2s1)c1cnccc1C(C)C (stereo not drawn) [Example 38, 1-(7-bromobenzo[d]thiazol-2-yl)-1-(4-isopropylpyridin-3-yl)butan-1-ol]
